From patent US20260217701A1, “SELECTIVE BET INHIBITORS AND USES THEREOF” (Tay Therapeutics Limited, priority 2022, published 2026)
Where “and” joins values, the source holds several entries; their conditions need not be identical. Equal values may be shown once.

Tested on: collagen-induced arthritis
Experiment: Collagen-induced arthritis (CIA) model: clinical scores and paw volume; as to Average animal paw volume percent change (%): reference of the scale not given here; as to animal paw volume percent change (%): reference of the scale not given here
Format: in vivo, Lewis rats
Conditions: for Average animal paw volume / Average animal paw volume percent change (%) / Animal paw volume percent change (%): group 3 CIA + Dexamethasone; for Animal paw volume percent change (%) / clinical score left forelimb / clinical score left hind limb / clinical score right forelimb / clinical score right hind limb / clinical score, score (all limbs) / Animal paw volume: individual animals; for Overall Clinical Score: individual animals 1-8; for Animal paw volume: Group 3 (CIA + Dexamethasone)
[1] = group 3 CIA+ Dexamethasone, Day 18
[2] = group 3 CIA+ Dexamethasone, Day 19
[3] = group 3 CIA+ Dexamethasone, Day 20

## C[C@@H]1C[C@H]2[C@@H]3CCC4=CC(=O)C=C[C@]4(C)[C@@]3(F)[C@@H](O)C[C@]2(C)[C@@]1(O)C(=O)CO [Dexamethasone, dexamethasone]
Day 0, L paw
  Average animal paw volume: 1.33 mL
  Average animal paw volume percent change (%): 0.00%
  Animal paw volume percent change (%): 0.00%
  Animal paw volume: 1.35 mL and 1.31 mL and 1.39 mL and 1.33 mL and 1.30 mL (2×) and 1.34 mL and 1.36 mL
Day 0, R paw
  Average animal paw volume: 1.33 mL
  Average animal paw volume percent change (%): 0.00%
  Animal paw volume percent change (%): 0.00%
  Animal paw volume: 1.34 mL and 1.30 mL (2×) and 1.38 mL and 1.35 mL and 1.29 mL and 1.36 mL and 1.37 mL
Day 0, CIA
  Average detailed clinical score, left forelimb: 0.00
  Average detailed clinical score, left hind limb: 0.00
  Average detailed clinical score, right forelimb: 0.00
  Average detailed clinical score, right hind limb: 0.00
  Average detailed clinical score, score: 0.00
  Average overall clinical score: 0
  clinical score left forelimb: 0
  clinical score left hind limb: 0
  clinical score right forelimb: 0
  clinical score right hind limb: 0
  clinical score, score (all limbs): 0
  Overall Clinical Score: 0
Day 6, L paw
  Average animal paw volume: 1.29 mL
  Average animal paw volume percent change (%): -3.37%
  Animal paw volume percent change (%): −2.97% and −1.53% and −3.61% and −3.02% and −3.09% and −3.08% and −4.12% and 5.51%
  Animal paw volume: 1.31 mL and 1.29 mL (3×) and 1.34 mL and 1.28 mL
Day 6, R paw
  Average animal paw volume: 1.29 mL
  Average animal paw volume percent change (%): -3.26%
  Animal paw volume percent change (%): −3.00% and 1.16% and −2.91% and −3.72% and −1.56% and −2.70% and −5.90% and −5.13%
  Animal paw volume: 1.30 mL (3×) and 1.28 mL (2×) and 1.34 mL and 1.27 mL
Day 6, CIA
  Average detailed clinical score, left forelimb: 0.00
  Average detailed clinical score, left hind limb: 0.00
  Average detailed clinical score, right forelimb: 0.00
  Average detailed clinical score, right hind limb: 0.00
  Average detailed clinical score, score: 0.00
  Average overall clinical score: 0
  clinical score left forelimb: 0
  clinical score left hind limb: 0
  clinical score right forelimb: 0
  clinical score right hind limb: 0
  clinical score, score (all limbs): 0
  Overall Clinical Score: 0
Day 12, L paw
  Average animal paw volume: 1.27 mL
  Average animal paw volume percent change (%): -4.94%
  Animal paw volume percent change (%): −10.41% and −7.66% and −1.44% and −3.40% and −1.54% and −6.54% and −3.00% and −5.51%
  Animal paw volume: 1.37 mL and 1.28 mL (2×) and 1.30 mL and 1.29 mL
Day 12, R paw
  Average animal paw volume percent change (%): -5.21%
  Animal paw volume percent change (%): −6.74% and −3.09% and 0.73% and −7.43% and −1.56% and −9.27% and −7.01% and −5.86%
  Animal paw volume: 1.37 mL and 1.27 mL and 1.29 mL
Day 12, CIA
  Average detailed clinical score, left forelimb: 0.00
  Average detailed clinical score, left hind limb: 0.00
  Average detailed clinical score, right forelimb: 0.00
  Average detailed clinical score, right hind limb: 0.00
  Average detailed clinical score, score: 0.00
  Average overall clinical score: 0
  clinical score left forelimb: 0
  clinical score left hind limb: 0
  clinical score right forelimb: 0
  clinical score right hind limb: 0
  clinical score, score (all limbs): 0
  Overall Clinical Score: 0
Day 13, L paw
  Average animal paw volume: 1.28 mL
  Average animal paw volume percent change (%): -3.57%
  Animal paw volume percent change (%): −8.92% and −5.36% and 0.72% and −3.02% and 0.00% and 4.23% and −2.25% and −5.51%
  Animal paw volume: 1.40 mL and 1.29 mL (2×) and 1.30 mL and 1.31 mL
Day 13, R paw
  Average animal paw volume: 1.28 mL
  Average animal paw volume percent change (%): -4.08%
  Animal paw volume percent change (%): −5.99% and −2.32% and 0.36% and −7.43% and −0.78% and −6.95% and −3.69% and 5.86%
  Animal paw volume: 1.27 mL and 1.38 mL and 1.28 mL and 1.31 mL and 1.29 mL
Day 13, CIA
  Average detailed clinical score, left forelimb: 0
  Average detailed clinical score, left hind limb: 0
  Average detailed clinical score, right forelimb: 0
  Average detailed clinical score, right hind limb: 0
  Average detailed clinical score, score: 0
  Average overall clinical score: 0
  clinical score left forelimb: 0
  clinical score left hind limb: 0
  clinical score right forelimb: 0
  clinical score right hind limb: 0
  clinical score, score (all limbs): 0
  Overall Clinical Score: 0
Day 14, L paw
  Average animal paw volume: 1.27 mL
  Average animal paw volume percent change (%): -4.60%
  Animal paw volume percent change (%): −8.18% and −5.36% and 0.00% and −4.53% and −1.54% and −5.00% and −3.75% and −8.46%
  Animal paw volume: 1.39 mL and 1.27 mL and 1.28 mL and 1.29 mL
Day 14, R paw
  Average animal paw volume percent change (%): -5.07%
  Animal paw volume percent change (%): −5.62% and −2.70% and 0.00% and −8.92% and −2.33% and −7.72% and −5.17% and −8.06%
  Animal paw volume: 1.38 mL and 1.29 mL
Day 14, CIA
  Average detailed clinical score, left forelimb: 0
  Average detailed clinical score, left hind limb: 0
  Average detailed clinical score, right forelimb: 0
  Average detailed clinical score, right hind limb: 0
  Average detailed clinical score, score: 0
  Average overall clinical score: 0
  clinical score left forelimb: 0
  clinical score left hind limb: 0
  clinical score right forelimb: 0
  clinical score right hind limb: 0
  clinical score, score (all limbs): 0
  Overall Clinical Score: 0
Day 15, L paw
  Average animal paw volume percent change (%): −5.47%
  Animal paw volume percent change (%): −8.92% and −7.28% and −2.17%
  Animal paw volume: 1.36 mL and 1.28 mL and 1.33 mL and 1.27 mL
Day 15, R paw
  Average animal paw volume percent change (%): −5.41%
  Animal paw volume percent change (%): −6.74% and −4.25% and 1.45%
  Animal paw volume: 1.36 mL and 1.27 mL (2×) and 1.32 mL
Day 15, CIA
  Average detailed clinical score, left forelimb: 0
  Average detailed clinical score, left hind limb: 0
  Average detailed clinical score, right forelimb: 0
  Average detailed clinical score, right hind limb: 0
  Average detailed clinical score, score: 0
  Average overall clinical score: 0
  clinical score left forelimb: 0
  clinical score left hind limb: 0
  clinical score right forelimb: 0
  clinical score right hind limb: 0
  clinical score, score (all limbs): 0
  Overall Clinical Score: 0
Day 18, L paw
  Average animal paw volume: 1.29 mL
  Average animal paw volume percent change (%): −3.01%
  Animal paw volume percent change (%): −5.20% and −6.51% and 4.33%
  Animal paw volume: 1.28 mL and 1.45 mL and 1.31 mL and 1.29 mL and 1.34 mL and 1.30 mL
Day 18, R paw
  Average animal paw volume: 1.29 mL
  Average animal paw volume percent change (%): −3.14%
  Animal paw volume percent change (%): 4.49% and −4.63% and 4.36%
  Animal paw volume: 1.28 mL and 1.44 mL and 1.31 mL and 1.29 mL (2×) and 1.34 mL
Day 18, CIA
  Average detailed clinical score, left forelimb: 0.00
  Average detailed clinical score, left hind limb: 0.00
  Average detailed clinical score, right forelimb: 0.00
  Average detailed clinical score, right hind limb: 0.00
  Average detailed clinical score, score: 0.00
  Average overall clinical score: 0
  Overall Clinical Score: 0
Day 19, L paw
  Average animal paw volume: 1.29 mL
  Average animal paw volume percent change (%): −3.33%
  Animal paw volume percent change (%): 5.20% and −6.90%
  Animal paw volume: 1.28 mL (2×) and 1.44 mL and 1.30 mL (2×) and 1.33 mL
Day 19, R paw
  Average animal paw volume: 1.28 mL
  Average animal paw volume percent change (%): −3.57%
  Animal paw volume percent change (%): −5.24% and −6.18%
  Animal paw volume: 1.27 mL (2×) and 1.44 mL and 1.31 mL and 1.32 mL and 1.30 mL
Day 19, CIA
  Average detailed clinical score, left forelimb: 0.00
  Average detailed clinical score, left hind limb: 0.00
  Average detailed clinical score, right forelimb: 0.00
  Average detailed clinical score, right hind limb: 0.00
  Average detailed clinical score, score: 0.00
  Average overall clinical score: 0
  Overall Clinical Score: 0
Day 21, L paw
  Average animal paw volume: 1.28 mL
  Average animal paw volume percent change (%): −3.56%
  Animal paw volume percent change (%): −6.32% and −6.90%
  Animal paw volume: 1.43 mL and 1.31 mL (2×) and 1.30 mL (2×)
Day 21, R paw
  Average animal paw volume: 1.29 mL
  Average animal paw volume percent change (%): −3.51%
  Animal paw volume percent change (%): −5.99% and −6.18%
  Animal paw volume: 1.43 mL and 1.31 mL and 1.30 mL (2×) and 1.32 mL
Day 21, CIA
  Average detailed clinical score, left forelimb: 0.00
  Average detailed clinical score, left hind limb: 0.00
  Average detailed clinical score, right forelimb: 0.00
  Average detailed clinical score, right hind limb: 0.00
  Average detailed clinical score, score: 0.00
  Average overall clinical score: 0
  Overall Clinical Score: 0
[1]
  clinical score left forelimb: 0
  clinical score left hind limb: 0
  clinical score right forelimb: 0
  clinical score right hind limb: 0
  clinical score, score (all limbs): 0
[2]
  clinical score left forelimb: 0
  clinical score left hind limb: 0
  clinical score right forelimb: 0
  clinical score right hind limb: 0
  clinical score, score (all limbs): 0
[3]
  clinical score left forelimb: 0
  clinical score left hind limb: 0
  clinical score right forelimb: 0
  clinical score right hind limb: 0
  clinical score, score (all limbs): 0
